Measurements from PubChem BioAssay AID272 (DTP/NCI, 2004).
Records with an inconclusive call do not appear.

Tested on: Lewis lung carcinoma i.m., BDF1 mice, T/C %
Assay: NCI In Vivo Anticancer Drug Screen. Data for tumor model Lewis Lung Carcinoma (intramuscular) in B6D2F1 (BDF1) mice
Settings: schedule: Q01DX011 (ip)
Outline: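 Tumour-bearing mice were dosed with compound, and either their survival or their tumour size was measured. Results were expressed relative to vehicle-treated controls as T/C.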

In the case of O=c1[nH]cc(N(CCCl)CCCl)c(=O)[nH]1, the T/C (endpoint: median survival time, dose: 0.13 mg/kg/injection, vehicle: other, higher = longer survival) is reported as 104 % of control, the T/C (endpoint: median survival time, dose: 0.25 mg/kg/injection, vehicle: other, higher = longer survival) is reported as 110 % of control and the T/C (endpoint: median survival time, dose: 0.5 mg/kg/injection, vehicle: other, higher = longer survival) is reported as 102 % of control. The T/C (endpoint: median survival time, dose: 0.5 mg/kg/injection, vehicle: saline, higher = longer survival) was 92 % of control.
In the case of O=C1NC(c2cccc3ccccc23)Nc2ccccc21 (stereo not given), the T/C (endpoint: mean tumor weight, dose: 15.6 mg/kg/injection, vehicle: saline with Tween-80, higher = larger tumour) is reported as 86 % of control, the T/C (endpoint: mean tumor weight, dose: 31.2 mg/kg/injection, vehicle: saline with Tween-80, higher = larger tumour) is reported as 80 % of control and the T/C (endpoint: mean tumor weight, dose: 62.5 mg/kg/injection, vehicle: saline with Tween-80, higher = larger tumour) is reported as 90 % of control. The T/C (endpoint: mean tumor weight, dose: 125.0 mg/kg/injection, vehicle: saline with Tween-80, higher = larger tumour) was 67 % of control, the T/C (endpoint: median survival time, dose: 15.6 mg/kg/injection, vehicle: saline, higher = longer survival) was 102 % of control and the T/C (endpoint: median survival time, dose: 31.2 mg/kg/injection, vehicle: saline, higher = longer survival) was 119 % of control. The T/C (endpoint: median survival time, dose: 62.5 mg/kg/injection, vehicle: saline, higher = longer survival) was 114 % of control and the T/C (endpoint: median survival time, dose: 125.0 mg/kg/injection, vehicle: saline, higher = longer survival) was 114 % of control.
NC(C=O)C(O)C(O)C(O)CO (stereo not given) was tested, and the T/C (endpoint: mean tumor weight (est.), dose: 750.0 mg/kg/injection, vehicle: saline, higher = larger tumour) was 77 % of control, the T/C (endpoint: mean tumor weight (est.), dose: 1500.0 mg/kg/injection, vehicle: saline, higher = larger tumour) was 93 % of control and the T/C (endpoint: mean tumor weight (est.), dose: 3000.0 mg/kg/injection, vehicle: saline, higher = larger tumour) was 89 % of control. The T/C (endpoint: median survival time, dose: 1500.0 mg/kg/injection, vehicle: saline, higher = longer survival) was 104 % of control and the T/C (endpoint: median survival time, dose: 3000.0 mg/kg/injection, vehicle: saline, higher = longer survival) was 104 % of control.
For CC[n+]1c(-c2ccccc2)c2cc(N)ccc2c2ccc(N)cc21, the T/C (endpoint: median survival time, dose: 0.25 mg/kg/injection, vehicle: steriod suspending solution, higher = longer survival) was 92 % of control, the T/C (endpoint: median survival time, dose: 0.5 mg/kg/injection, vehicle: steriod suspending solution, higher = longer survival) was 107 % of control and the T/C (endpoint: median survival time, dose: 1.0 mg/kg/injection, vehicle: steriod suspending solution, higher = longer survival) was 100 % of control. For the same compound, the T/C (endpoint: median survival time, dose: 2.0 mg/kg/injection, vehicle: steriod suspending solution, higher = longer survival) was 117 % of control, the T/C (endpoint: median survival time, dose: 4.0 mg/kg/injection, vehicle: steriod suspending solution, higher = longer survival) was 96 % of control and the T/C (endpoint: median tumor weight (est.), dose: 0.25 mg/kg/injection, vehicle: steriod suspending solution, higher = larger tumour) was 90 % of control. For the same compound, the T/C (endpoint: median tumor weight (est.), dose: 0.5 mg/kg/injection, vehicle: steriod suspending solution, higher = larger tumour) was 95 % of control, the T/C (endpoint: median tumor weight (est.), dose: 1.0 mg/kg/injection, vehicle: steriod suspending solution, higher = larger tumour) was 90 % of control and the T/C (endpoint: median tumor weight (est.), dose: 2.0 mg/kg/injection, vehicle: steriod suspending solution, higher = larger tumour) was 77 % of control. The T/C (endpoint: median tumor weight (est.), dose: 4.0 mg/kg/injection, vehicle: steriod suspending solution, higher = larger tumour) was 73 % of control.
For COc1ccc(C(=O)c2cc(OC)c(OC)c(OC)c2)cc1OC, the T/C (endpoint: mean tumor weight (est.), dose: 100.0 mg/kg/injection, vehicle: saline with Tween-80, higher = larger tumour) was 34 % of control, the T/C (endpoint: mean tumor weight (est.), dose: 200.0 mg/kg/injection, vehicle: saline with Tween-80, higher = larger tumour) was 51 % of control and the T/C (endpoint: mean tumor weight (est.), dose: 400.0 mg/kg/injection, vehicle: saline with Tween-80, higher = larger tumour) was 43 % of control. For the same compound, the T/C (endpoint: median survival time, dose: 100.0 mg/kg/injection, vehicle: saline with Tween-80, higher = longer survival) was 93 % of control, the T/C (endpoint: median survival time, dose: 200.0 mg/kg/injection, vehicle: saline with Tween-80, higher = longer survival) was 89 % of control and the T/C (endpoint: median survival time, dose: 400.0 mg/kg/injection, vehicle: saline with Tween-80, higher = longer survival) was 108 % of control.
CCCSc1ncnc2nc[nH]c12 was tested, and the T/C (endpoint: mean tumor weight, dose: 25.0 mg/kg/injection, vehicle: other, higher = larger tumour) was 80 % of control and the T/C (endpoint: median survival time, dose: 25.0 mg/kg/injection, vehicle: other, higher = longer survival) was 102 % of control.
